# Results published in patent US7968526B2, “Antisense oligonucleotides directed to ribonucleotide reductase R2 and uses thereof in the treatment of cancer” (Lorus Therapeutics Inc., priority 2003, dated 2011).
# “Also recorded” adds a separate entry of the source.
# How the values were obtained:
# Format in all cases: in vivo, human cells in mice
# [1] = system: HeLa S3 human cervical cancer cells; experiment: HeLa S3 cervical tumour growth in SCID mice (3.11)
# Method: Treatments lasted for 14 days thereafter. Antitumour activities were estimated by the inhibition of tumour volume, which was measured with a caliper on four different occasions over the treatment period. Each point represents mean tumour volume calculated from 5 animals per experimental group. […] Control animals (control) received saline alone for the same period. At the end of the treatments, the animals were sacrificed, tumours were excised and their weights were measured. Each bar represents mean tumour weight calculated from 6 animals per experimental group. […] Treatments lasted for 24 days thereafter. Antitumour activities were estimated by the inhibition of tumour volume, which was measured with a caliper at two-day intervals over the treatment period. Each point represents mean tumour volume calculated from 4 animals per experimental group. […] Treatments lasted for 24 days thereafter. Antitumour activities were estimated by the inhibition of tumour volume, which was measured with a caliper at two-day intervals over the treatment period. Each point represents mean tumour volume calculated from 4 animals per experimental group. […] Each point represents mean tumour volume calculated from 5 animals per experimental group. […] Antitumour activities were estimated by the inhibition of tumour volume, which was measured with a caliper on four different occasions over 16-day period. Each point represents mean tumour volume calculated from 5 animals per experimental group. […] Antitumour activities were estimated by the inhibition of tumour volume, which was measured with a caliper at two-day intervals over the treatment period. Each point represents mean tumour volume calculated from 5 animals per experimental group. […] Antitumour activities were estimated by the inhibition of tumour volume, which was measured with a caliper at various time intervals over the span of 30 days. Each point represents mean tumour volume calculated from 6 animals per experimental group. […] Antitumour activities were estimated by the inhibition of tumour volume, which was measured with a caliper. […]
# [2] = system: Hela S3 human cervix epitheloid carcinoma cells; experiment: Hela S3 hydroxyurea resistant cervix carcinoma xenograft in SCID mice
# Method: BxPC-3 is a gemcitabine resistant call line. […] Gemcitabine was administered intravenously every three days at a dose of 100 mg/kg. Antitumour activities were estimated by the inhibition of tumour volume, which was measured with caliper. Each point represents mean tumour volume calculated from 10 animals per experimental group. […] Hela S3 is a hydroxyurea resistant cell line. […] Hydroxyurea was administered intraperitoneally every day at a dose of 250 mg/kg for 10 days. Cisplatin was administered intravenously once a week for three weeks at a dose of 4 mg/kg. Antitumour activities were estimated by the inhibition of tumour volume, which was measured with caliper. Each point represents mean tumour volume calculated from 10 animals per experimental group. […] Cisplatin was administered intravenously once a week for three weeks at a dose of 4 mg/kg. Taxol was administered intravenously once a week for three weeks at a dose of 10 mg/kg. Antitumour activities were estimated by the inhibition of tumour volume, which was measured with caliper. Each point represents mean tumour volume calculated from 10 animals per experimental group. […] Taxol was administered i.p. once a week at a dose of 10 mg/kg. Antitumour activities were estimated by the inhibition of tumour volume (FIG. 12A), which was measured with calipers. Each point represents mean tumour volume calculated from 10 animals per experimental group. Animals were sacrificed and tumour weights taken at the end of the study (FIG. 12C). […] The effects of combined treatment were greater than either treatment alone. […] Cisplatin was administered intravenously once a week for four weeks at a dose of 4 mg/kg. Taxol was administered intravenously once a week for four weeks at a dose of 20 mg/kg. Antitumour activities were estimated by the inhibition of tumour volume, which was measured with caliper. Each point represents mean tumour volume calculated from 9-10 animals per experimental group. […] Cisplatin was administered intravenously once a week for four weeks at a dose of 4 mg/kg. Antitumour activities were estimated by the inhibition of tumour volume, which was measured with caliper. Each point represents mean tumour volume calculated from 10 animals per experimental group. At the end of the study the animals were sacrificed and tumours weighed. […] Taxol was administered i.p. once a week at a dose of 10 mg/kg. Anti-tumour activity was estimated by the inhibition of tumour volume, which was measured with caliper. Each point represents mean tumour volume calculated from 10 animals per experimental group. In addition animals were sacrificed and tumour weights taken at the end of the study. […] CPT-11 was administered i.p. for 5 days at a dose of 20 mg/kg/day. Antitumour activities were estimated by the inhibition of tumour volume, which was measured with caliper. Each point represents mean tumour volume calculated from 10 animals per experimental group. Tumour weights were measured after animals were sacrificed at the end of the treatment. These cells are not resistant to CPT-11 which was used as a positive control.
# [3] = system: Hep G2 human liver cancer cells; experiment: HepG2 liver tumour growth in CD-1 nude mice (3.7)
# Method: Treatments lasted for 14 days thereafter. Antitumour activities were estimated by the inhibition of tumour volume, which was measured with a caliper on four different occasions over the treatment period. Each point represents mean tumour volume calculated from 5 animals per experimental group. […] Control animals (control) received saline alone for the same period. At the end of the treatments, the animals were sacrificed, tumours were excised and their weights were measured. Each bar represents mean tumour weight calculated from 6 animals per experimental group. […] Treatments lasted for 24 days thereafter. Antitumour activities were estimated by the inhibition of tumour volume, which was measured with a caliper at two-day intervals over the treatment period. Each point represents mean tumour volume calculated from 4 animals per experimental group. […] Treatments lasted for 24 days thereafter. Antitumour activities were estimated by the inhibition of tumour volume, which was measured with a caliper at two-day intervals over the treatment period. Each point represents mean tumour volume calculated from 4 animals per experimental group. […] Treatments lasted for 22 days thereafter. […] Each point represents mean tumour volume calculated from 5 animals per experimental group. […] Treatments lasted for 14 days thereafter. Antitumour activities were estimated by the inhibition of tumour volume, which was measured with a caliper on four different occasions over 16-day period. Each point represents mean tumour volume calculated from 5 animals per experimental group. […] Two different batches of SEQ ID NO:1, synthesized at different times (designated as batch 1 and batch 2), were tested to detect possible batch-specific effects. […] Treatments lasted for 34 days thereafter. Antitumour activities were estimated by the inhibition of tumour volume, which was measured with a caliper at two-day intervals over the treatment period. Each point represents mean tumour volume calculated from 5 animals per experimental group. […] Treatments lasted for 30 days thereafter. Antitumour activities were estimated by the inhibition of tumour volume, which was measured with a caliper at various time intervals over the span of 30 days. Each point represents mean tumour volume calculated from 6 animals per experimental group. […] All treatments were stopped at day 36. Antitumour activities were estimated by the inhibition of tumour volume, which was measured with a caliper. Each point represents mean tumour volume calculated from 5 animals per experimental group. […] All treatments were stopped at day 52. […] Antitumour activities were estimated by the inhibition of tumour volume, which was measured with a caliper.
# [4] = Human Cervical Carcinoma^2 in SCID mice, Day 17 after tumour implantation
substance,measurement,setting,value
"5′-GGCTAAATCGCTCCACCAAG-3′ (all phosphorothioate, sugars by position and methylation of C not given here) [SEQ ID NO: 1, fully phosphorothioated antisense oligonucleotide that hybridizes to the coding region of R2 mRNA]","Inhibitory effect on tumour growth (tumour volume and weight, FIG. 23)","[1]; HeLa S3, SCID mice, 10 mg/kg i.v. every other day, 14 days",strong inhibitory effects on the growth of human cervical carcinoma
same,Inhibition of tumour size,[1]; [4],approximately 60% in SCID mice on Day 17fter
same,Inhibition of tumour weight,[1]; [4],approximately 60% in SCID mice on Day 17fter
same,Tumour weight as % of saline control,"[2]; Hela S3 (cervix), hydroxyurea resistant, SCID, SEQ ID NO:1 10 mg/kg i.v. every other day 6 times, Hydroxyurea 250 mg/kg i.p. daily 10 days, Cisplatin 4 mg/kg i.v. weekly x3",24%
same,"Antitumour effect (tumour volume, FIG. 10)","[2]; Hela S3 hydroxyurea resistant, SCID mice, SEQ ID NO:1 10 mg/kg i.v. every other day, Hydroxyurea 250 mg/kg i.p. daily, Cisplatin 4 mg/kg i.v. weekly",significant delay of tumour growth compared to saline control; also recorded: superior to the inhibitory effects observed with Cisplatin alone
same,"Inhibitory effect on tumour growth (tumour volume, FIG. 20)","[3]; Hep G2, CD-1 nude mice, 2.5 mg/kg i.v. every day, 30 days",significant inhibitory effects on the growth of human hepatoma cells
same,Inhibition of tumour weight,[3]; Human Liver Carcinoma,~65%
same,Inhibition of tumour size,"[3]; Human Liver Carcinoma in CD-1 nude mice, Day 30 after tumour implantation",Inhibition of tumour size by 45% in CD-1 nude
